The source of these data is ChEMBL document CHEMBL1201862, “PubChem BioAssay data set” (2004).

The target in assay [1] is T1, Neuropeptide Y receptor type 2 (Homo sapiens, UniProt P49146).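 Also: HEK293 cells expressing the receptor and a CNG channel; stimulus was NPY near EC95 followed by isoproterenol to raise cAMP; antagonist potency measured as restoring cAMP signal that NPY suppresses.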
T1 sequence (P49146 whole entry): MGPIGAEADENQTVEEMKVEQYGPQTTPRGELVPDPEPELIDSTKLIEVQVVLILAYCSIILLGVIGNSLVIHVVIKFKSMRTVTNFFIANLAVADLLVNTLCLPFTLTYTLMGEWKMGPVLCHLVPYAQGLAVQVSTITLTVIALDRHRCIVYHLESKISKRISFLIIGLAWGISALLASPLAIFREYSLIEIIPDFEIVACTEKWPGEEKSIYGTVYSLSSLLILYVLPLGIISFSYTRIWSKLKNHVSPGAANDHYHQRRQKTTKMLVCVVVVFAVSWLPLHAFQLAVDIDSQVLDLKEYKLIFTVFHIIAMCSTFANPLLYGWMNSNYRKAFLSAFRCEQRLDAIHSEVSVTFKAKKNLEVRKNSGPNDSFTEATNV
The class given is functional, cell-based.

The target of assay [2] is T2, Neuropeptide Y receptor type 1 (Homo sapiens, UniProt P25929).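 Also: HEK293 cells with a CNG channel challenged with NPY then isoproterenol; potency as antagonist that reverses NPY suppression of cAMP signal.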
T2 sequence (P25929 whole entry): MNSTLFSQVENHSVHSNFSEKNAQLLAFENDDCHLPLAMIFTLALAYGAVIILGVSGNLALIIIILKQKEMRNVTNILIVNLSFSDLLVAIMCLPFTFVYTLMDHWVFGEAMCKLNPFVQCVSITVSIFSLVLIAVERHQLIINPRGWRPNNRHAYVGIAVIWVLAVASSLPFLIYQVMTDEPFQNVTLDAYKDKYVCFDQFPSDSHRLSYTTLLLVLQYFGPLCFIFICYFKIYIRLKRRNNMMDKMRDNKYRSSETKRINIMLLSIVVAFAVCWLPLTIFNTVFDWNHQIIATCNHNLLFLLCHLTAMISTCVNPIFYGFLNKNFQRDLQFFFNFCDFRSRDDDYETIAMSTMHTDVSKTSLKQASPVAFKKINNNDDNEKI
The class given is functional.

Assay [3] is described as follows: Trypanosoma cruzi growth suppression in host cells – NIH3T3 host cells, beta-gal luminescence, confirmation (AID 2044).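 Also: intracellular parasites grown in NIH/3T3 mouse fibroblasts as host cells; luminescent beta-galactosidase reporter signal from transgenic T. cruzi replicating inside host cells; inhibitors lower the luminescence signal.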 The class given is functional, cell-based.
The nature of assay [4]: NIH3T3 cell viability loss – ATP luminescence, mouse fibroblasts, counter-screen, dose response (AID 2010).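 Also: cells exposed to compound for about 90 hours before reading.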 Type of assay: functional, cell-based.
The target in assay [5] is Peroxisome proliferator-activated receptor gamma/Nuclear receptor coactivator 1 (Homo sapiens, UniProt P37231). Type of assay: functional.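 Also: agonist potency as compounds enhance coactivator SRC-1 recruitment to PPARgamma.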
Assay [6] has as its target Peroxisome proliferator-activated receptor gamma/Nuclear receptor coactivator 2 (Homo sapiens, UniProt P37231). The class given is functional.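 Also: agonist potency for raising coactivator recruitment to the receptor.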
The target of assay [7] is Peroxisome proliferator-activated receptor gamma/Nuclear receptor coactivator 3 (Homo sapiens, UniProt P37231). The class given is functional.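 Also: agonist potency for raising coactivator recruitment to the receptor.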
The target in assay [8] is T3, Sentrin-specific protease 6 (Homo sapiens, UniProt Q9GZR1).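 Also: Luminescence-based dose-response confirmatory assay of SENP6 inhibition, following up an ultra-high-throughput screen.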
T3 sequence (Q9GZR1 whole entry): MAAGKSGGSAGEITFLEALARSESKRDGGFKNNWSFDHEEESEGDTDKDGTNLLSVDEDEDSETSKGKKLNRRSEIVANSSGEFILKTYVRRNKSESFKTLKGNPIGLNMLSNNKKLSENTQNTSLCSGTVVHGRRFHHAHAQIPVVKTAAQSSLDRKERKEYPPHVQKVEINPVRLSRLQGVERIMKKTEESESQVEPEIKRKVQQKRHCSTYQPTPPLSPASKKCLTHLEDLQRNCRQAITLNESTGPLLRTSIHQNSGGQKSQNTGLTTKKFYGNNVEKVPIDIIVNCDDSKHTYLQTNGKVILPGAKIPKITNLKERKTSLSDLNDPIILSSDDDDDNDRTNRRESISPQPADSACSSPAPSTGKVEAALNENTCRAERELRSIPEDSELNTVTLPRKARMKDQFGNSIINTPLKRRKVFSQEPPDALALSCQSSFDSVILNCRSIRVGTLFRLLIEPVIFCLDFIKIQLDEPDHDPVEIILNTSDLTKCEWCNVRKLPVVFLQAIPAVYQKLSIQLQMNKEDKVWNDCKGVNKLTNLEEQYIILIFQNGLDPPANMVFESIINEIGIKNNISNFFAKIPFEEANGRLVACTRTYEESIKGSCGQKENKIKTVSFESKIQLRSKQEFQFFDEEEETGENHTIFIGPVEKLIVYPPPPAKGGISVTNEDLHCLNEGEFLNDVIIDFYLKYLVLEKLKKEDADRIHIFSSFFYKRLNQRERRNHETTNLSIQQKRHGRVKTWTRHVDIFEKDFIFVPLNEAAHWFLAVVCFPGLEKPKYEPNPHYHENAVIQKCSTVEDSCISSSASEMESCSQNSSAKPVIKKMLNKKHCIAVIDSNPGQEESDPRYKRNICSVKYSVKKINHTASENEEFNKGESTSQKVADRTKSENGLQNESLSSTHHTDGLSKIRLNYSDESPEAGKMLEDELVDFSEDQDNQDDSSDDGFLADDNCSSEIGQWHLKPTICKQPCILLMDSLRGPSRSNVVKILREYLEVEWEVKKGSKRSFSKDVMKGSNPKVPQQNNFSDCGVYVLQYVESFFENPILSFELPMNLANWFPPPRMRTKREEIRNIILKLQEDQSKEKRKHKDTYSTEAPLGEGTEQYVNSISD
Type of assay: functional.

In assay [9] the target is T4, Serine/threonine-protein phosphatase (Homo sapiens, UniProt Q9BPW0).
T4 sequence (Q9BPW0 whole entry): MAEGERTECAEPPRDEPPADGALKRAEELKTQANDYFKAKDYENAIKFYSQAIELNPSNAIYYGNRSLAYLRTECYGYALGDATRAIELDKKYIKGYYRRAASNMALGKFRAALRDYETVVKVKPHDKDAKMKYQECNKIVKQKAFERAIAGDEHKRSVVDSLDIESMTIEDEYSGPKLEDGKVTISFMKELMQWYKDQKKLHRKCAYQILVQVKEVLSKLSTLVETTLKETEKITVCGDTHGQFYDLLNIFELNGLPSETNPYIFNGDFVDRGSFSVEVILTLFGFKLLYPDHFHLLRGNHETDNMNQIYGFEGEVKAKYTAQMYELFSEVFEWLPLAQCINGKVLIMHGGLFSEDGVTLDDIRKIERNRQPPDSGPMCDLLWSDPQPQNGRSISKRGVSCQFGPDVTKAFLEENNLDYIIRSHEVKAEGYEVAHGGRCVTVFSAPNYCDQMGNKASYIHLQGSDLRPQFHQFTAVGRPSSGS
Nature of the assay: inhibition of protein phosphatase 5 activity – biochemical, fluorescence, dose response (AID 2395).

The target in assay [10] is T5, Sentrin-specific protease 8 (Homo sapiens, UniProt Q96LD8).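 Also: luminescence read-out of SENP8 inhibition, dose-response confirmation following an ultra-high-throughput screen.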
T5 sequence (Q96LD8 whole entry): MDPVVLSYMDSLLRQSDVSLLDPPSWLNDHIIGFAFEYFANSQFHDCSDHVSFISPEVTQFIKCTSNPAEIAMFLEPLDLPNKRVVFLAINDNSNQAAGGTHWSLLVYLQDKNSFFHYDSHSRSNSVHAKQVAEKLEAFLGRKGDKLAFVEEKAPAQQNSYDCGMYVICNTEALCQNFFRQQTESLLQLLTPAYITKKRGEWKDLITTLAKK
The class given is functional.

The target in assay [11] is T6, Sentrin-specific protease 7 (Homo sapiens, UniProt Q9BQF6).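 Also: Luminescence-based dose-response confirmation of ultra-high-throughput screening hits, measuring inhibition of SENP7.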
T6 sequence (Q9BQF6 whole entry): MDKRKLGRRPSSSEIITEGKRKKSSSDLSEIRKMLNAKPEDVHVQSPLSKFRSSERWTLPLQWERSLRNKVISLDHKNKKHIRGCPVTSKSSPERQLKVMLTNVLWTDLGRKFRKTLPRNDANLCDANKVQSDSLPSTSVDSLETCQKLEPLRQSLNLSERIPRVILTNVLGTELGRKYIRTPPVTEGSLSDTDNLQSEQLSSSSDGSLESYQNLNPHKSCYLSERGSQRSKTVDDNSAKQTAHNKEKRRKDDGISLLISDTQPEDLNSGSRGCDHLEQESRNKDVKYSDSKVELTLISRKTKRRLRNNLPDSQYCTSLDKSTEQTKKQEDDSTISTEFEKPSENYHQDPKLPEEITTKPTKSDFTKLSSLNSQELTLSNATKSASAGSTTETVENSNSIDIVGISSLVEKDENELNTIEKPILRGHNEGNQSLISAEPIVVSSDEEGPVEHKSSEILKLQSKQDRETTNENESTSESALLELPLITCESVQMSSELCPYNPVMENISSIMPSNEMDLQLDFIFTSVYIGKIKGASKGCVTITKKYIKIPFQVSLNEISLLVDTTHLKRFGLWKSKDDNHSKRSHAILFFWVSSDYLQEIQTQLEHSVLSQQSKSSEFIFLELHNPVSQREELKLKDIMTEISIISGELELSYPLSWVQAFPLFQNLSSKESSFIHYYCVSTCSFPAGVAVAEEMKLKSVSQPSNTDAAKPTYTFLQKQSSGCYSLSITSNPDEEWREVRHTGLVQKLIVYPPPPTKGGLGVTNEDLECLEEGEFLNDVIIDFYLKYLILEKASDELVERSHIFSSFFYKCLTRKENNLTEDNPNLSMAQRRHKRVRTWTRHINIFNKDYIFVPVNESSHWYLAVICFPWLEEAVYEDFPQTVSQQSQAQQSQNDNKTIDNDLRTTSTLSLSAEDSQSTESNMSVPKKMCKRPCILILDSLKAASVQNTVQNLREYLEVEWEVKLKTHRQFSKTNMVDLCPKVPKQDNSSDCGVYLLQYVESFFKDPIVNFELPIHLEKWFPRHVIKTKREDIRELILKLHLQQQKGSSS
The class given is functional.

Assay [12] concerns the target Serine/threonine-protein phosphatase PP1-alpha catalytic subunit (Homo sapiens, UniProt P62136). Nature of the assay: inhibition of protein phosphatase 1 activity – biochemical, fluorescence, dose response (AID 2394).
The target of another assay is T7, Caspase-3 (Homo sapiens, UniProt P42574).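 Also: Dose-response selectivity test against caspase-3 for candidate inhibitors of sentrin-specific proteases (SENPs).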
T7 sequence (P42574 whole entry): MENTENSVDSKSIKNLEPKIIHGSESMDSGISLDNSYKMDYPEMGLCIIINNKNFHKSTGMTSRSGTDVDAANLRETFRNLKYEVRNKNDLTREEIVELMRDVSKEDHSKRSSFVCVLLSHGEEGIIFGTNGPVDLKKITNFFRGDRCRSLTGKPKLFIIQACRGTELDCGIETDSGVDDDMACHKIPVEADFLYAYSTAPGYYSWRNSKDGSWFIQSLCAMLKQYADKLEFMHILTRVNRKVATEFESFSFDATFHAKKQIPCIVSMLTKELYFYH
The class given is functional.

In another assay the target is T8, Streptokinase A (Streptococcus pyogenes serotype M1, UniProt P10520).
T8 sequence (P10520 whole entry): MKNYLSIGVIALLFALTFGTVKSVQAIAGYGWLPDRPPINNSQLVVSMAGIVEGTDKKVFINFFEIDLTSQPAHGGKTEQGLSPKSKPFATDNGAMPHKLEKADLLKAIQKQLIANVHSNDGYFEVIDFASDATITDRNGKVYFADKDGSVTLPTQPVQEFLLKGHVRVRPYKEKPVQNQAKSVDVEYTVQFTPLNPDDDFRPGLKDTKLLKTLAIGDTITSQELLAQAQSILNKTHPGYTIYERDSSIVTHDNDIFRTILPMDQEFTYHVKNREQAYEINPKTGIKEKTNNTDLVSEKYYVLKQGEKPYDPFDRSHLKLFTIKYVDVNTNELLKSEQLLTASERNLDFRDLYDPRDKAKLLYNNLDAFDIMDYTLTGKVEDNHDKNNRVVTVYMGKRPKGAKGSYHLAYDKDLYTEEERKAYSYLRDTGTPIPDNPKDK
Nature of the assay: viability-normalized secreted streptokinase activity reduction – plasminogen activation absorbance, OD405, dose response (AID 1914).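 Also: secreted streptokinase activity via plasminogen activation per viability signal from cell pellet.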 The class given is functional, Streptococcus pyogenes M1 GAS.

The nature of assay [13]: viability of uninfected HEp-2 cells – cell-based, HTS, cytotoxicity control for RSV inhibitor project, dose response (AID 2410). The settings on record: human respiratory syncytial virus. The class given is functional.
The next assay concerns Streptococcus. Nature of the assay: GAS UMAA2166 growth inhibition – luminescence, BacTiterGlo, counter-screen for streptokinase expression inhibitor project, dose response (AID 1915).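 Also: potency for reduction of bacterial viability or growth.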 The class given is functional, organism-based.
The test system of assay [14] is Streptococcus sp. 'group A'. Nature of the assay: Streptococcus pyogenes SK(-)GAS viability under kanamycin – luminescence, BacTiterGlo, confirmation, counter-screen for streptokinase expression inhibitor project, dose response (AID 1900). The class given is functional, organism-based.
Assay [15] is described as follows: Luminescence Cell-Based Dose Retest to Confirm Inhibitors of Cancer Stem Cells. [Related pubchem assays (depositor defined):AID2717, AID2721]. Type of assay: functional. The settings on record: Homo sapiens.
The nature of assay [16]: Luminescence Cell-Based Dose Response HTS to Identify Activators of Luciferase Translation or Activity in H4 […] Cells. [Related pubchem assays: 1829 (Project Summary), 1814 (Primary HTS)]. Type of assay: functional.
A short description of assay [17]: Luminescence-based dose response cell-based high throughput screening assay for cytotoxic compounds using the IEC-6 intestinal epithelial cell line. [Related pubchem assays: 1858 (Summary AID.), 1825 (Counterscreen.), 1907 (Confirmation screen.)]. Type of assay: functional.

Molecules are shown by their SMILES. The source made the active and inactive calls.
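For AC50 in this document: cells exposed to compound for roughly 70 hours or longer before luminescence read.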

Chain of Serine/threonine-protein phosphatase PP1-alpha catalytic subunit (P62136 whole entry): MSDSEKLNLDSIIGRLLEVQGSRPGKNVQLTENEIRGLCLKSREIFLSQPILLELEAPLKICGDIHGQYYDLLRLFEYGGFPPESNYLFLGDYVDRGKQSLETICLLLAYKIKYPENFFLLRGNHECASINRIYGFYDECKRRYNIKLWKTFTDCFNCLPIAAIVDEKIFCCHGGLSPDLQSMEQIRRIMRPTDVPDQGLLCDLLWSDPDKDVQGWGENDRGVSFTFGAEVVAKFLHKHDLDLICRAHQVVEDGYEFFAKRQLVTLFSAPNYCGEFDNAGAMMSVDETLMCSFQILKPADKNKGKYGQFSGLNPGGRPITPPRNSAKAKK
Chain of Peroxisome proliferator-activated receptor gamma/Nuclear receptor coactivator 1 (P37231 whole entry): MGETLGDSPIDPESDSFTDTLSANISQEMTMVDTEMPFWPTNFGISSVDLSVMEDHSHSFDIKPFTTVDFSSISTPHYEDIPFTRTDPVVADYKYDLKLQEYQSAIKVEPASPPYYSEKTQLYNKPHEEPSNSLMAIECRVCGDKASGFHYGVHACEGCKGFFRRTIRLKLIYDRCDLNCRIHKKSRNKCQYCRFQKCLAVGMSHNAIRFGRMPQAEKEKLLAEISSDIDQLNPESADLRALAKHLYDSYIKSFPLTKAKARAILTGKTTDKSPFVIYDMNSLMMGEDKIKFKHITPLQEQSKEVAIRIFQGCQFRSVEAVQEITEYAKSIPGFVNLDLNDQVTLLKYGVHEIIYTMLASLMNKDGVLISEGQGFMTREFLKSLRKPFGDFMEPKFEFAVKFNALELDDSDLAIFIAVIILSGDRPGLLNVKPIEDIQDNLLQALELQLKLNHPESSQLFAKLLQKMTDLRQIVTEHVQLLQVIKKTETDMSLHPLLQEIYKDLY
Chain of Peroxisome proliferator-activated receptor gamma/Nuclear receptor coactivator 1 (Q15788 whole entry, further chain): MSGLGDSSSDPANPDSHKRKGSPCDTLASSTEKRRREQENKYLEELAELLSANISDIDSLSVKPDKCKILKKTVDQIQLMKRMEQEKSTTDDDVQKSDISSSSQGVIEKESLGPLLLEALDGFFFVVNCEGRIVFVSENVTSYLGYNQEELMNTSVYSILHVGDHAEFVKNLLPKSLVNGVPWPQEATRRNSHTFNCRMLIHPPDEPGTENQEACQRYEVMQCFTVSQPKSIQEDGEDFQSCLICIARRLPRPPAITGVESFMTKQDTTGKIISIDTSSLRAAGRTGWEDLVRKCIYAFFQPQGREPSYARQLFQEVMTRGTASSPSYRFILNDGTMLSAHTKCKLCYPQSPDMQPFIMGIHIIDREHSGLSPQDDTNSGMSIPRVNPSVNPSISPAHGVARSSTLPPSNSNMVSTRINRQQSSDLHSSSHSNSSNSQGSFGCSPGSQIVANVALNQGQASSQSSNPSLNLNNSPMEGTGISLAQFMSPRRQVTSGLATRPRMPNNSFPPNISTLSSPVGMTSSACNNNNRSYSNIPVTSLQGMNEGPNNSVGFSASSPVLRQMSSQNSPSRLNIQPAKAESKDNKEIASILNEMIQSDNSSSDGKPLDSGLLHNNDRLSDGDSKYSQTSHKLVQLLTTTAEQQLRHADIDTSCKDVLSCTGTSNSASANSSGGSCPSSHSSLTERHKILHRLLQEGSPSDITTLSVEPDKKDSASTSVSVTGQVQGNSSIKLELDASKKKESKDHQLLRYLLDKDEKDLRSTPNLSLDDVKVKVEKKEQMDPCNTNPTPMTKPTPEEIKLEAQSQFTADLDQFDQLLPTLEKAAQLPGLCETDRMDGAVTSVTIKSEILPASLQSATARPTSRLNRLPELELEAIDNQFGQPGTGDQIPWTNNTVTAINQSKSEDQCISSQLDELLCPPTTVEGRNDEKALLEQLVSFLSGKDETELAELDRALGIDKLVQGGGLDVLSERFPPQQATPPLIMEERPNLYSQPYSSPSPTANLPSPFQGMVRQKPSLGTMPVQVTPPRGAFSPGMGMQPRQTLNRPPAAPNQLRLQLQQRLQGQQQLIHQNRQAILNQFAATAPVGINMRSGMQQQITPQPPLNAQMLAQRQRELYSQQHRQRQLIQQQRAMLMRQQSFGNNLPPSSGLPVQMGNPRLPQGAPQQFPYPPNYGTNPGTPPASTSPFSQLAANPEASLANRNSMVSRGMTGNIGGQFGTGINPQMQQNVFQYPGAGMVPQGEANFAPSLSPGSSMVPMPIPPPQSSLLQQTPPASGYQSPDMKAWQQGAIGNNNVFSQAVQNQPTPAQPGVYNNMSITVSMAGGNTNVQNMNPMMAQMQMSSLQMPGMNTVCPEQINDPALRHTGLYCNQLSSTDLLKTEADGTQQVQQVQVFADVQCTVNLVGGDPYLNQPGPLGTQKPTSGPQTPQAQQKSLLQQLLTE
Chain of Peroxisome proliferator-activated receptor gamma/Nuclear receptor coactivator 3 (P37231 whole entry): as the sequence (P37231 whole entry) above
Chain of Peroxisome proliferator-activated receptor gamma/Nuclear receptor coactivator 3 (Q9Y6Q9 whole entry, further chain): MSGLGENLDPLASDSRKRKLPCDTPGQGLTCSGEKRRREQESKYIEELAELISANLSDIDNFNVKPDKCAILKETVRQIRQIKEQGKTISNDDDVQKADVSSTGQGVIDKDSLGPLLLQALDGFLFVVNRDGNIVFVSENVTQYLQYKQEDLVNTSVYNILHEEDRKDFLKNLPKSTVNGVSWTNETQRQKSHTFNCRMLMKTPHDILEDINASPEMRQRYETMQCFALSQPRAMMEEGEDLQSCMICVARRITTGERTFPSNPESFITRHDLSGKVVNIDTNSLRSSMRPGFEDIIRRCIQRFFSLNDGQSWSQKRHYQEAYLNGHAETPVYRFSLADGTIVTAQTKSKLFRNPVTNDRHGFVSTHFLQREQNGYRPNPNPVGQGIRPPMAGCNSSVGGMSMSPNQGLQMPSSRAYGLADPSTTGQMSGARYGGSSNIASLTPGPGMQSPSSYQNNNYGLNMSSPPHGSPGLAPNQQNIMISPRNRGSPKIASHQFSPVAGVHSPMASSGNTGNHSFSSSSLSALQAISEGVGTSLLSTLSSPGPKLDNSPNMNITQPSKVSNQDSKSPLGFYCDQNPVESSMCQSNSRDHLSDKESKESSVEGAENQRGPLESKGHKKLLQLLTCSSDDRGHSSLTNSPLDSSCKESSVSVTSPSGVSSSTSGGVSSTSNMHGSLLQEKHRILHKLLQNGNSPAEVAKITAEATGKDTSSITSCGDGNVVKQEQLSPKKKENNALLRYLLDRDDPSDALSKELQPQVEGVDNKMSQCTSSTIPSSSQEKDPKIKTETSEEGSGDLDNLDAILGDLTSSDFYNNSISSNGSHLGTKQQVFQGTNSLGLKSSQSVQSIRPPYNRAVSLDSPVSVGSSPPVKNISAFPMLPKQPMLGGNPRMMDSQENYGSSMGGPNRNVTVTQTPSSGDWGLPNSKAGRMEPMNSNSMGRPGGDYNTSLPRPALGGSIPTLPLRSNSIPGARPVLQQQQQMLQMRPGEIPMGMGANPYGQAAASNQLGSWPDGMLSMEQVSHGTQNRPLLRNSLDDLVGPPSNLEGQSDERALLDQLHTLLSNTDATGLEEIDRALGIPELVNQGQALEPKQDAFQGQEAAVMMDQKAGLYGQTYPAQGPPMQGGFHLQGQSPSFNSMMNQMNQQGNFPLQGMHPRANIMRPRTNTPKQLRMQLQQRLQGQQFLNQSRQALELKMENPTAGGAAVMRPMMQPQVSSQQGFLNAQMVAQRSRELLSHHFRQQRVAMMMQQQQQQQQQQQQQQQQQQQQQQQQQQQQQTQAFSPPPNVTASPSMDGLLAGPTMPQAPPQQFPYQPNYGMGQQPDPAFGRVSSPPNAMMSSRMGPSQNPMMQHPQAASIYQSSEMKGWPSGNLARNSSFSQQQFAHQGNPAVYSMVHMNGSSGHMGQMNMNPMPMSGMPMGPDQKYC

On to `CCOc1ccc(NC(=S)N2CCC(C(O)(c3ccccc3)c3ccccc3)CC2)cc1`, for which the IC50 was 0.22 µM (active) in assay [1] and > 35 µM (not active) in assay [2].

In the case of `CCOc1ccc(OCC(O)CNC2CCN(Cc3ccccc3)CC2)cc1` (stereo not given), the EC50 was < 0.1 µM (active) in assay [3], 0.255 µM (active) in the assay “cells” and 9.8 µM (active) in assay [4].

With `CCOC(=O)c1ccc(NC(=O)CCc2nc(-c3ccc(C)cc3)no2)cc1`, the EC50 in [5], in [6] and in [7] was > 79.4 µM (not active) in each case.

With `CN1CC[C@@]2(C)c3cc(O)ccc3N(C)C2O1` (stereo not given in full), the IC50 in [8] is 11.9 µM (active); in [9] it was > 7.45 µM (active); in assay [10] it was 10.7 µM (active); in assay [11], 14.3 µM (active); in [12], 52.3 µM (not active); at Caspase-3, > 100 µM (inactive).

Turning to `CC(C)COC(=O)c1cccc2c1-c1ccccc1/C2=N\O`, the EC50 at Streptokinase A is > 50 µM (not active); in the assay with Streptococcus, > 150 µM (not active); in [14], 4.74 µM (active). In addition, the CC50 in assay [13] is > 50 µM (active). In addition, the IC50 in [1] was 4.96 µM (active); in assay [2] it was 6.46 µM (active). In addition, the AC50 in assay [15] is 5.69 µM (active).

`Cc1ccc(Nc2nc(-c3ccncc3)cs2)cc1`: the EC50 is 0.239 µM (active) in assay [3], 0.149 µM (active) in assay [16] and 8.83 µM (active) in [4]. Moreover, the IC50 in assay [17] was 2.71 µM (active).
